Results on ten compounds are retold here after ChEMBL document CHEMBL4613209, “Quinolone hybrids and their anti-cancer activities: An overview” (Eur J Med Chem, 2019).

SMILES strings stand for the structures.

In general, IC50 refers to the concentration at which inhibition is half-maximal.

In one assay the test system is L1210. Nature of the assay: Antiproliferative activity against mouse L1210 cells after 24 to 72 hrs by MTT assay. It is filed as functional, cell-based. For orientation: Formazan colour is commonly taken as a measure of viable cells.
For the compound `CCn1cc(-c2nnc(SCC(=O)N/N=C/c3ccc(C)cc3)o2)c(=O)c2cc(F)c(N3CCN(C)CC3)cc21`, the IC50 fell in the range of 1.4 to 52.3 µM.

`CCn1cc(C(=O)N/N=C/c2ccc(Cl)cc2)c(=O)c2cc(F)c(N3CCNCC3)cc21` came in with an IC50 of 1.4 to 52.3 µM.

In turn, `CCn1cc(C(=O)N/N=C/c2ccc3c(c2)OCO3)c(=O)c2cc(F)c(N3CCNCC3)cc21` registered an IC50 of 1.4 to 52.3 µM.

`CC1COc2c(N3CCN(C)CC3)c(F)cc3c(=O)c(-c4nnc(SCC(=O)N/N=C/c5ccccc5)[nH]4)cn1c23` (stereo not given): the IC50 fell in the range of 1.4 to 52.3 µM.

Regarding `CCn1cc(C(=O)N/N=C/c2ccccc2OC)c(=O)c2cc(F)c(N3CCNCC3)cc21`, the IC50 was 1.4 to 52.3 µM.

The compound `CC1COc2c(N3CCN(C)CC3)c(F)cc3c(=O)c(-c4nnc(SCC(=O)N/N=C/c5ccc(F)cc5)[nH]4)cn1c23` (stereo not given) gave a half-maximal inhibitory concentration (IC50) of 1.4 to 52.3 µM.

`CCn1cc(-c2nnc(SCC(=O)N/N=C/c3ccccc3C(=O)O)o2)c(=O)c2cc(F)c(N3CCN(C)CC3)cc21` registered an IC50 of 1.4 to 52.3 µM.

With `CCn1cc(C(=O)N/N=C/c2ccc([N+](=O)[O-])cc2)c(=O)c2cc(F)c(N3CCNCC3)cc21`, the IC50 lay within 1.4 to 52.3 µM.

Regarding `CC1COc2c(N3CCN(C)CC3)c(F)cc3c(=O)c(-c4nnc(N/N=C/c5ccc(Cl)cc5)[nH]4)cn1c23` (stereo not given), the IC50 was 1.4 to 52.3 µM.

Turning to `CCn1cc(-c2nnc(SCC(=O)N/N=C/c3ccccc3OC)o2)c(=O)c2cc(F)c(N3CCN(C)CC3)cc21`, the IC50 is 1.4 to 52.3 µM.

For a further assay, the system named is Hep 3B2. Nature of the assay: Antiproliferative activity against human Hep3B cells after 24 to 72 hrs by MTT assay. It is filed as functional, cell-based.
Regarding `CCn1cc(-c2nnc(SCC(=O)N/N=C/c3ccc(C)cc3)o2)c(=O)c2cc(F)c(N3CCN(C)CC3)cc21`, the IC50 was 1.4 to 52.3 µM.

On to `CCn1cc(C(=O)N/N=C/c2ccc(Cl)cc2)c(=O)c2cc(F)c(N3CCNCC3)cc21`, for which the IC50 was 1.4 to 52.3 µM.

For the compound `CCn1cc(C(=O)N/N=C/c2ccc3c(c2)OCO3)c(=O)c2cc(F)c(N3CCNCC3)cc21`, the IC50 was in the range of 1.4 to 52.3 µM.

Take `CC1COc2c(N3CCN(C)CC3)c(F)cc3c(=O)c(-c4nnc(SCC(=O)N/N=C/c5ccccc5)[nH]4)cn1c23` (stereo not given): the IC50 fell in the range of 1.4 to 52.3 µM.

Consider `CCn1cc(C(=O)N/N=C/c2ccccc2OC)c(=O)c2cc(F)c(N3CCNCC3)cc21`, for which the IC50 lay within 1.4 to 52.3 µM.

The compound `CC1COc2c(N3CCN(C)CC3)c(F)cc3c(=O)c(-c4nnc(SCC(=O)N/N=C/c5ccc(F)cc5)[nH]4)cn1c23` (stereo not given) had an IC50 of 1.4 to 52.3 µM.

Take `CCn1cc(-c2nnc(SCC(=O)N/N=C/c3ccccc3C(=O)O)o2)c(=O)c2cc(F)c(N3CCN(C)CC3)cc21`: the IC50 was in the range of 1.4 to 52.3 µM.

As to `CCn1cc(C(=O)N/N=C/c2ccc([N+](=O)[O-])cc2)c(=O)c2cc(F)c(N3CCNCC3)cc21`, the IC50 lay in the range of 1.4 to 52.3 µM.

Compound `CC1COc2c(N3CCN(C)CC3)c(F)cc3c(=O)c(-c4nnc(N/N=C/c5ccc(Cl)cc5)[nH]4)cn1c23` (stereo not given) displayed an IC50 of 1.4 to 52.3 µM.

In turn, `CCn1cc(-c2nnc(SCC(=O)N/N=C/c3ccccc3OC)o2)c(=O)c2cc(F)c(N3CCN(C)CC3)cc21` had an IC50 of 1.4 to 52.3 µM.

For a further assay, the system named is SMMC-7721. Nature of the assay: Antiproliferative activity against human SMMC7721 cells after 24 to 72 hrs by MTT assay. It is filed as functional, cell-based.
`CCn1cc(-c2nnc(SCC(=O)N/N=C/c3ccc(C)cc3)o2)c(=O)c2cc(F)c(N3CCN(C)CC3)cc21` returned a half-inhibitory concentration (IC50) of 1.4 to 52.3 µM.

The compound `CCn1cc(C(=O)N/N=C/c2ccc(Cl)cc2)c(=O)c2cc(F)c(N3CCNCC3)cc21` showed an IC50 of 1.4 to 52.3 µM.

Turning to `CCn1cc(C(=O)N/N=C/c2ccc3c(c2)OCO3)c(=O)c2cc(F)c(N3CCNCC3)cc21`, the IC50 is 1.4 to 52.3 µM.

Regarding `CC1COc2c(N3CCN(C)CC3)c(F)cc3c(=O)c(-c4nnc(SCC(=O)N/N=C/c5ccccc5)[nH]4)cn1c23` (stereo not given), the IC50 fell in the range of 1.4 to 52.3 µM.

The compound `CCn1cc(C(=O)N/N=C/c2ccccc2OC)c(=O)c2cc(F)c(N3CCNCC3)cc21` gave an IC50 of 1.4 to 52.3 µM.

`CC1COc2c(N3CCN(C)CC3)c(F)cc3c(=O)c(-c4nnc(SCC(=O)N/N=C/c5ccc(F)cc5)[nH]4)cn1c23` (stereo not given) showed an IC50 of 1.4 to 52.3 µM.

Compound `CCn1cc(-c2nnc(SCC(=O)N/N=C/c3ccccc3C(=O)O)o2)c(=O)c2cc(F)c(N3CCN(C)CC3)cc21` gave a half-maximal inhibitory concentration (IC50) of 1.4 to 52.3 µM.

`CCn1cc(C(=O)N/N=C/c2ccc([N+](=O)[O-])cc2)c(=O)c2cc(F)c(N3CCNCC3)cc21` yielded an IC50 of 1.4 to 52.3 µM.

Regarding `CC1COc2c(N3CCN(C)CC3)c(F)cc3c(=O)c(-c4nnc(N/N=C/c5ccc(Cl)cc5)[nH]4)cn1c23` (stereo not given), the IC50 fell in the range of 1.4 to 52.3 µM.

`CCn1cc(-c2nnc(SCC(=O)N/N=C/c3ccccc3OC)o2)c(=O)c2cc(F)c(N3CCN(C)CC3)cc21` returned an IC50 of 1.4 to 52.3 µM.

The next assay concerns HL-60. Nature of the assay: Antiproliferative activity against human HL60 cells after 24 to 72 hrs by MTT assay. It is filed as functional, cell-based.
Regarding `CCn1cc(-c2nnc(SCC(=O)N/N=C/c3ccc(C)cc3)o2)c(=O)c2cc(F)c(N3CCN(C)CC3)cc21`, the IC50 fell in the range of 1.4 to 52.3 µM.

`CCn1cc(C(=O)N/N=C/c2ccc(Cl)cc2)c(=O)c2cc(F)c(N3CCNCC3)cc21` registered an IC50 of 1.4 to 52.3 µM.

Take `CCn1cc(C(=O)N/N=C/c2ccc3c(c2)OCO3)c(=O)c2cc(F)c(N3CCNCC3)cc21`: the IC50 fell in the range of 1.4 to 52.3 µM.

For `CC1COc2c(N3CCN(C)CC3)c(F)cc3c(=O)c(-c4nnc(SCC(=O)N/N=C/c5ccccc5)[nH]4)cn1c23` (stereo not given), the IC50 was 1.4 to 52.3 µM.

In the case of `CCn1cc(C(=O)N/N=C/c2ccccc2OC)c(=O)c2cc(F)c(N3CCNCC3)cc21`, the IC50 was 1.4 to 52.3 µM.

`CC1COc2c(N3CCN(C)CC3)c(F)cc3c(=O)c(-c4nnc(SCC(=O)N/N=C/c5ccc(F)cc5)[nH]4)cn1c23` (stereo not given) returned an IC50 of 1.4 to 52.3 µM.

The compound `CCn1cc(-c2nnc(SCC(=O)N/N=C/c3ccccc3C(=O)O)o2)c(=O)c2cc(F)c(N3CCN(C)CC3)cc21` registered an IC50 of 1.4 to 52.3 µM.

In the case of `CCn1cc(C(=O)N/N=C/c2ccc([N+](=O)[O-])cc2)c(=O)c2cc(F)c(N3CCNCC3)cc21`, the IC50 was 1.4 to 52.3 µM.

Compound `CC1COc2c(N3CCN(C)CC3)c(F)cc3c(=O)c(-c4nnc(N/N=C/c5ccc(Cl)cc5)[nH]4)cn1c23` (stereo not given) had an IC50 of 1.4 to 52.3 µM.

For the compound `CCn1cc(-c2nnc(SCC(=O)N/N=C/c3ccccc3OC)o2)c(=O)c2cc(F)c(N3CCN(C)CC3)cc21`, the IC50 was 1.4 to 52.3 µM.
